Reference: publication PMC6155665, “Antiplasmodial Activity, Cytotoxicity and Structure-Activity Relationship Study of Cyclopeptide Alkaloids” (Molecules : A Journal of Synthetic Chemistry and Natural …, 2017)
Like-named read-outs stand apart in the source and are kept apart here.

Key:
P. falciparum strain K1 [1] = experiment: In vitro antiplasmodial activity; type: cell-based; conditions: Plasmodium falciparum
Procedure: (§1) The antiplasmodial and cytotoxic activity determinations of all cyclopeptide alkaloids were performed as reported before. Each experiment was performed at least in triplicate and the average IC50 values were calculated.

[2] = Cytotoxicity against MRC-5 cells; conditions: human
Procedure: as §1

Plasmodium falciparum = conditions: cited from earlier work; for IC50: read-out: antiplasmodial IC50
P. falciparum strain K1 [3] = test system: P. falciparum strain K1; design: method as in PMID 27351950, PMID 27933893; conditions: previously reported by the same group, same test conditions; cited from earlier work
MRC-5 cells = conditions: cited from earlier work
[4] = strain K1, average of at least triplicate, read-out: P. falciparum K1 IC50
[5] = read-out: MRC-5 IC50, cytotoxicity, previously reported by the same group
[6] = corresponding to the μg/mL values, Suksamrarn et al.

In the case of `CCN(CC)CCCC(C)Nc1ccnc2cc(Cl)ccc12` (stereo not shown) [Chloroquine, reference compound], the IC50 (P. falciparum strain K1 [1]; K1, read-out: P. falciparum K1 IC50) is reported as 0.15 µM.

`CCC(C)[C@@H]1NC(=O)[C@@H]2[C@H](CCN2C(=O)[C@@H](NC)C(C)CC)Oc2ccc(cc2)/C=C\NC1=O` (stereo partly shown) [Compound 1, Nummularine-U] showed an IC50 (P. falciparum strain K1 [1]; [4]) of 23 ± 8.5 µM and an IC50 ([2]; MRC-5 cells) of over 64 µM.

Compound `CN[C@@H](C)C(=O)N[C@H](C(=O)N1CC[C@@H]2Oc3ccc(cc3)/C=C\NC(=O)[C@H](Cc3ccccc3)NC(=O)[C@H]21)C(C)C` [Compound 2, Mauritine-F] has an IC50 (P. falciparum strain K1 [1]; [4]) of 34.2 ± 9.14 µM and an IC50 [2] of over 64 µM.

With `CCC(C)[C@@H]1NC(=O)[C@@H]2[C@H](CCN2C(=O)[C@@H](NC(=O)[C@H](Cc2ccccc2)N(C)C)C(C)CC)Oc2ccc(O)c(c2)/C=C\NC1=O` (stereo partly shown) [Compound 3, Spinanine-B] the IC50 (P. falciparum strain K1 [1]; [4]) was 2.1 ± 0.3 µM and the IC50 [2] was over 64 µM.

For `CC(C)C[C@@H]1NC(=O)[C@@H](NC(=O)[C@H](C(C)O)N(C)C)[C@H](c2ccccc2)Oc2ccc(cc2)/C=C\NC1=O` (stereo partly shown) [Compound 4, Nummularine-E], the IC50 (P. falciparum strain K1 [1]; [4]) was over 64 µM and the IC50 ([2]; MRC-5 cells) was over 64 µM.

With `CCC(C)[C@@H]1NC(=O)[C@@H]2[C@H](CCN2C(=O)[C@@H](NC(=O)[C@H](Cc2ccccc2)N(C)C)C(C)CC)Oc2ccc(cc2)/C=C\NC1=O` (stereo partly shown) [Compound 5, Amphibine-D] the IC50 (P. falciparum strain K1 [1]; [4]) was 8.9 ± 1.5 µM and the IC50 [2] was over 64 µM.

`CN[C@@H](C)C(=O)N[C@H](C(=O)N1CC[C@@H]2Oc3ccc(OC)c(c3)/C=C\NC(=O)[C@H](C(C)C)NC(=O)[C@H]21)C(C)C` [Compound 6, Jubanine-F] gave an IC50 (P. falciparum strain K1 [1]; [4]) of 12.8 ± 2.9 µM and an IC50 [2] of over 64 µM.

With `CCC(C)[C@H](NC(=O)[C@H](C)NC)C(=O)N1CC[C@@H]2Oc3ccc(OC)c(c3)/C=C\NC(=O)[C@H](C(C)C)NC(=O)[C@H]21` (stereo partly shown) [Compound 7, Jubanine-G] the IC50 (P. falciparum strain K1 [1]; [4]) was 4.7 ± 2.4 µM and the IC50 [2] was over 64 µM.

In the case of `CN[C@@H](C)C(=O)N[C@H](C(=O)N1CC[C@@H]2Oc3ccc(OC)c(c3)/C=C\NC(=O)[C@H](Cc3ccccc3)NC(=O)[C@H]21)C(C)C` [Compound 8, Nummularine-B], the IC50 (P. falciparum strain K1 [1]; [4]) is given as 3.6 ± 1.3 µM, the IC50 [2] is given as over 64 µM and the “antiplasmodial activity against Plasmodium falciparum (in words)” value (Plasmodium falciparum; Panseeta et al.) is given as “moderately active”. The IC50 (Plasmodium falciparum; Panseeta et al.) was 10.3 µM.

With `CC[C@H](C)[C@@H]1NC(=O)[C@@H](NC(=O)[C@H](CC(C)C)N(C)C)[C@H](C(C)C)Oc2ccc(cc2)/C=C\NC1=O` [Compound 9, Adouetine-X] the IC50 (P. falciparum strain K1 [1]; [4]) was 7.5 ± 1.8 µM and the IC50 ([2]; MRC-5 cells) was 19.1 ± 11.9 µM.

`CCC(C)[C@@H](C(=O)N[C@@H]1C(=O)N[C@@H](CC(C)C)C(=O)N/C=C\c2ccc(cc2)O[C@H]1C(C)C)N(C)C` (stereo partly shown) [Compound 10, Frangulanine] showed an IC50 (P. falciparum strain K1 [1]; [4]) of 14.9 ± 5.2 µM and an IC50 ([2]; MRC-5 cells) of 30.6 ± 6.5 µM.

For `CCC(C)[C@@H](C(=O)N[C@H](C(=O)N[C@@H]1C(=O)N[C@@H](Cc2c[nH]c3ccccc23)C(=O)NCC(=O)c2ccc(cc2)OC1(C)C)C(C)C)N(C)C` (stereo partly shown) [Compound 11, Hymenocardine], the IC50 (P. falciparum strain K1 [3]) is given as 16.4 ± 6.8 µM and the IC50 (MRC-5 cells) is given as 51.1 ± 17.2 µM.

For `CCC(C)[C@@H](C(=O)N[C@H](C(=O)N[C@@H]1C(=O)N[C@@H](Cc2c[nH]c3ccccc23)C(=O)NCC(O)c2ccc(cc2)OC1(C)C)C(C)C)N(C)C` (stereo partly shown) [Compound 12, Hymenocardinol], the IC50 (P. falciparum strain K1 [3]) is given as 17.5 ± 8.7 µM and the IC50 (MRC-5 cells) is given as over 64 µM.

For `CCC(C)[C@@H](C(=O)N[C@H](C(=O)N[C@@H]1C(=O)N[C@@H](Cc2c[nH]c3ccccc23)C(=O)NCC(=O)c2ccc(cc2)OC1(C)C)C(C)C)[N+](C)(C)[O-]` (stereo partly shown) [Compound 13, Hymenocardine N-oxide], the IC50 (P. falciparum strain K1 [3]) is given as 12.2 ± 6.6 µM and the IC50 (MRC-5 cells) is given as over 64 µM.

For `CCC(C)[C@H](NC(=O)[C@H](C(C)CC)N(C)C)C(=O)N[C@@H]1C(=O)N[C@@H](Cc2c[nH]cn2)C(=O)NCC(=O)c2ccc(cc2)O[C@H]1C(C)C` (stereo partly shown) [Compound 14, Hymenocardine-H], the IC50 (P. falciparum strain K1 [3]) is given as 27.9 ± 16.5 µM and the IC50 (MRC-5 cells) is given as over 64 µM.

For `CCC(C)[C@@H]1NC(=O)[C@@H]2[C@H](CCN2C(=O)[C@H](Cc2c[nH]c3ccccc23)N(C)C)Oc2ccc(OC)c(c2)/C=C\NC1=O` (stereo partly shown) [Compound 15, Nummularine-R], the IC50 (P. falciparum strain K1 [3]) is listed as 3.2 ± 2.6 µM and the IC50 (MRC-5 cells; [5]) is listed as 30.6 ± 4 µM.

In the case of `CCC(C)[C@@H]1NC(=O)[C@@H]2[C@H](CCN2C(=O)[C@H](Cc2c[nH]c3ccccc23)N(C)C)Oc2ccc(O)c(c2)/C=C\NC1=O` (stereo partly shown) [Compound 16, O-desmethylnummularine-R], the IC50 (P. falciparum strain K1 [3]) is given as 7.1 ± 1.6 µM and the IC50 (MRC-5 cells; [5]) is given as over 64 µM.

For `CCC(C)[C@@H]1NC(=O)[C@@H]2[C@H](CCN2C(=O)[C@H](Cc2c[nH]c3ccccc23)N(C)C)Oc2ccc(cc2)/C=C\NC1=O` (stereo partly shown) [Compound 17, Hemsine-A], the IC50 (P. falciparum strain K1 [3]) is listed as 13.6 ± 9.3 µM and the IC50 (MRC-5 cells; [5]) is listed as over 64 µM.

In the case of `CCC(C)[C@@H]1NC(=O)[C@@H]2[C@H](CCN2C(=O)[C@H](C(C)CC)N(C)C)Oc2ccc(cc2)/C=C\NC1=O` (stereo partly shown) [Compound 18, Ramosine-A], the IC50 (P. falciparum strain K1 [3]) is given as over 32 µM and the IC50 (MRC-5 cells; [5]) is given as over 64 µM.

In the case of `O=C1N/C=C\c2ccc(cc2)O[C@@H](c2ccccc2)[C@H](NC(=O)[C@@H]2CCCN2C(=O)/C=C/c2ccccc2)C(=O)N[C@H]1C(O)c1ccccc1` (stereo partly shown) [Compound 19, Oxyphylline-F], the IC50 (P. falciparum strain K1 [3]) is listed as 7.4 ± 3 µM and the IC50 (MRC-5 cells; [5]) is listed as 31.2 ± 1.4 µM.

In the case of `CCC(C)[C@H](C(=O)N[C@@H](CC(C)C)C(=O)N1CC[C@@H]2Oc3ccc(OC)c(c3)/C=C\NC(=O)[C@@H]3CCCN3C(=O)[C@H]21)N(C)C` (stereo partly shown) [ziziphine-N], the “antiplasmodial IC50” value (Plasmodium falciparum; Suksamrarn et al.) is listed as 3.92 µg/mL and the IC50 (Plasmodium falciparum; [6]) is listed as 6.4 µM.

In the case of `CCC(C)[C@@H](NC)C(=O)N[C@@H](CC(C)C)C(=O)N1CC[C@@H]2Oc3ccc(OC)c(c3)/C=C\NC(=O)[C@@H]3CCCN3C(=O)[C@H]21` (stereo partly shown) [ziziphine-O], the “antiplasmodial activity (in words)” value (Plasmodium falciparum; Suksamrarn et al.) is listed as “not active”.

In the case of `CCC(C)[C@H](C(=O)N[C@H](C(=O)N1CC[C@@H]2Oc3ccc(OC)c(c3)/C=C\NC(=O)[C@@H]3CCCN3C(=O)[C@H]21)C(C)C)N(C)C` (stereo partly shown) [ziziphine-Q], the “antiplasmodial IC50” value (Plasmodium falciparum; Suksamrarn et al.) is listed as 3.5 µg/mL and the IC50 (Plasmodium falciparum; [6]) is listed as 5.9 µM.

In the case of mauritine-L, the “antiplasmodial activity against Plasmodium falciparum (in words)” value (Plasmodium falciparum; Panseeta et al.) is listed as “not”.

For nummularine-B methiodide, the “antiplasmodial activity against Plasmodium falciparum (in words)” value (Plasmodium falciparum; Panseeta et al.) is listed as “not”.

In the case of ziziphine-P, the “antiplasmodial activity (in words)” value (Plasmodium falciparum; Suksamrarn et al.) is given as “not active”.
